Patent publication US7582652B2, “Kinase inhibitors” (Eli Lilly and Company, priority 2004, dated 2009)

Experiments:
TNF-α = test: Inhibition of TNF-α in vivo (LPS-challenged mice); design: species or system female Balb/c mice; conditions: p.o., LPS 5 mg/kg i.v. after 2 h, serum 1 h after LPS
Experimental: Compounds are administered p.o. (100, 30, 10 and 3 mg/kg) to female Balb/c mice (5 mice/dose). After 2 h, lipopolysaccharide (LPS, E. coli serotype 0111:B4, 5 mg/kg) is administered i.v. in the tail vein of each mouse. One hour after LPS administration the mice are asphyxiated by CO2 inhalation and bled out via cardiac puncture.
TNF-α/Luminex Detection Assay (Bio-Rad Bio-Plex Kit—Catalog #171-G12221)
Reconstitute the lyophilized premixed TNF-α standard (1 standard tube/two 96-well plates) with 50 μL sterile water (500,000 pg/mL). Gently vortex for 5 seconds, incubate on ice for 30 min, and vortex for 5 seconds before use. Label a set of twelve 1.5 mL tubes with #1-thru #12 and then add the amounts of cell media shown below to the appropriate tubes (standard concentrations are as follows: 50,000; 25,000; 12,500; 6,250; 3,125; 1,562.5; 781.3; 390.6; 195.3; 97.7; 48.8; and 24.4 pg/mL). Vortex the premixed anti-cytokine conjugated beads (25×) vigorously for 30 seconds. Dilute the anti-cytokine conjugated beads to a 1× concentration using 1× Bio-Plex Assay Buffer. […] Read standards and samples on Luminex machine. These intensity readings are then converted to picogram/milliliter units based on a 12-point standard curve created in duplicate using a four-parameter logistic regression method (Bio-Plex Manager 2.0, Bio-Rad), and the IC50 calculated. […]

[1] = system: MAPKAP-K2 phosphorylation in B16F10 melanoma tumors; test: B16F10 melanoma target (MAPKAP-K2 phosphorylation); assay type: in vivo, C57B16 mice; conditions: p.o., B16F10 tumors in mice, MAPKAP-K2 phosphorylation by immuno-blot
Experimental: B16F10 Melanoma Target (MAPKAP-K2 Phosphorylation)
The B16F10 melanoma cell line is obtained from the American Type Culture Collection, Rockville, Md. The cells are cultured in RPMI-1640 medium supplemented with 10% fetal calf serum. The cells grown in vitro are harvested during their exponential growth phase by gentle trypsinization, washed twice in medium, and resuspended in serum-free RPMI-1640 medium. The number of viable cells is determined using a hemocytometer and adjusted to 1×10^7/mL. Tumor cells are injected subcutaneously in normal C57B16 mice. Inoculum volume per mouse is 0.2 mL (2,000,000 cells). When the tumors reach 300-500 mg, the mice are used for target inhibition studies at either a fixed time (2.5 hours) after p.o. compound treatment or pharmacodynamic studies where the tumors are collected at multiple time-points (e.g., 3, 6, 9, 12, 15, and 18 h) after p.o. compound treatment.
Protein Extraction and Immuno-Blot Analysis
Tumors collected as described above are immediately snap-frozen in liquid nitrogen and stored at −80° C. […] The supernatant is transferred to fresh prechilled microfuge tubes and protein concentrations are measured using Bio-Rad protein assay reagents using bovine serum albumin as protein standard.
Protein extracts are equalized with the extraction buffer. […] Protein bands of interest are quantified from films using Kodak Image Station 1000.

SMILES: CC(C)(C)Cn1c(N)nc2ccc(-c3nc(C(C)(C)C)[nH]c3-c3ccc(F)cc3)nc21.CS(=O)(=O)O.CS(=O)(=O)O [EXAMPLE 104, Crystalline 5-[2-tert-Butyl-5-(4-fluoro-phenyl)-1H-imidazol-4-yl]-3-(2,2-dimethyl-propyl)-3H-imidazo[4,5-b]pyridin-2-ylamine dimethanesulfonate]
- IC50 (suppressed TNF-α in vivo) (TNF-α): < 1 mg/kg
- TMED50 [1]: 3.59 mg/kg
